Consider 14 molecules from PubChem BioAssay (NCI).

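Values below derive from 48-hour exposures of cells grown in 96-well plates, with endpoints linearly interpolated between the two concentrations bracketing the appropriate inhibition level. GI50 marks 50% less growth. TGI denotes the concentration required for complete inhibition of growth.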 A value given as a limit tells only on which side of the number the result lay.

Test systems include A549 NSCLC; HOP-92 NSCLC; NCI-H23 lung; OVCAR-8 ovarian; RPMI-8226 leukemia; SNB-75 CNS; TK-10 renal; UACC-62 melanoma; SF-268 CNS.
What all share (assay): NCI-60 cell line screen, 48 h

As to `COCCOCCOCCOc1cccc2c1C(=O)c1cccc(OCCOCCOCCOC)c1C2=O`, the TGI in the assay with A549 NSCLC, in the assay with HOP-92 NSCLC, in the assay with NCI-H23 lung, in the assay on OVCAR-8 ovarian, with RPMI-8226 leukemia and in the assay with SNB-75 CNS was more than 100 µM in each case. Besides, the TGI with TK-10 renal and in the assay on UACC-62 melanoma was more than 100 µM throughout.

For `c1ccc(OCc2nnc3n2N=C(c2ccccc2)CS3)cc1`, the TGI with A549 NSCLC, in the assay on HOP-92 NSCLC, with NCI-H23 lung, with OVCAR-8 ovarian, with RPMI-8226 leukemia and in the assay with SF-268 CNS was more than 100 µM in each case. In addition, the figures for the TGI in the assay on SNB-75 CNS, in the assay on TK-10 renal and in the assay with UACC-62 melanoma were 95.1 µM, more than 100 µM and more than 100 µM, respectively.

Consider `CC(=O)c1ccc(NC(=O)COC(=O)c2cccc3c(=O)c4ccccc4[nH]c23)cc1`, for which the TGI was more than 100 µM in the assay with A549 NSCLC; more than 100 µM with HOP-92 NSCLC; more than 100 µM in the assay with NCI-H23 lung; more than 100 µM in the assay with OVCAR-8 ovarian; more than 100 µM in the assay with SF-268 CNS; 31.5 µM in the assay with SNB-75 CNS. Besides, the figures for the TGI in the assay on TK-10 renal and in the assay on UACC-62 melanoma were 60.6 µM and more than 100 µM, respectively.

As to `COc1cccc(SSc2cccc(OC)c2C(=O)O)c1C(=O)O`, the TGI in the assay on A549 NSCLC, in the assay with HOP-92 NSCLC, in the assay on NCI-H23 lung, with OVCAR-8 ovarian, in the assay with RPMI-8226 leukemia and in the assay on SF-268 CNS was more than 100 µM in each case. Besides, the TGI in the assay with SNB-75 CNS, in the assay with TK-10 renal and with UACC-62 melanoma was more than 100 µM throughout.

For `O=c1cccc(-c2cccc(=O)[nH]2)[nH]1`, the TGI in the assay on A549 NSCLC was more than 100 µM; with HOP-92 NSCLC, 96.5 µM; in the assay on NCI-H23 lung it was more than 100 µM; in the assay on OVCAR-8 ovarian it was more than 100 µM; in the assay on RPMI-8226 leukemia, more than 100 µM; in the assay on SNB-75 CNS, more than 100 µM. Besides, the TGI with TK-10 renal and in the assay on UACC-62 melanoma was more than 100 µM in each case.

As for `COc1cc2ccnc3c(=C(SC)SC)c(=O)c(c1OC)c23`, the TGI in the assay with A549 NSCLC is more than 100 µM; with HOP-92 NSCLC it was 21.2 µM; in the assay on OVCAR-8 ovarian, 22.7 µM; with RPMI-8226 leukemia, 15.9 µM; with SF-268 CNS it was 60.3 µM; with SNB-75 CNS it was 21.8 µM. For the same molecule, the TGI in the assay with TK-10 renal amounted to 27.1 µM; in the assay on UACC-62 melanoma it was 37.9 µM.

As to `Nc1nc(N)c2nc3c(nc2n1)CCCCCCCCCC3`, the GI50 in the assay with A549 NSCLC is 0.407 µM; in the assay on HOP-92 NSCLC it was 3.23 µM; in the assay on NCI-H23 lung, 2.86 µM; with OVCAR-8 ovarian, 1.99 µM; in the assay on RPMI-8226 leukemia, more than 100 µM; in the assay with SF-268 CNS, 2.1 µM. For the same molecule, the GI50 in the assay with SNB-75 CNS is 5.35 µM; with UACC-62 melanoma, 1.39 µM. Moreover, the TGI with A549 NSCLC, with HOP-92 NSCLC, with NCI-H23 lung, with OVCAR-8 ovarian, in the assay on RPMI-8226 leukemia and in the assay with SF-268 CNS was more than 100 µM each time. The TGI was 51.2 µM in the assay on SNB-75 CNS and more than 100 µM in the assay with UACC-62 melanoma.

Consider `Cc1ccc(C2NC(=O)c3ccccc3N2)c(C)c1` (stereo not drawn), for which the TGI in the assay with A549 NSCLC was more than 100 µM; in the assay on HOP-92 NSCLC it was more than 95.7 µM; in the assay with NCI-H23 lung it was more than 87 µM; in the assay with OVCAR-8 ovarian it was more than 71.5 µM; with RPMI-8226 leukemia, 12 µM; in the assay on SF-268 CNS, more than 100 µM. Moreover, the TGI in the assay with SNB-75 CNS was 6.8 µM; with TK-10 renal, more than 100 µM; in the assay on UACC-62 melanoma, more than 100 µM.

Regarding `O=C1OC(=O)C2C3C=CC(C12)C1C2C=CC2C31` (stereo not drawn), the TGI with A549 NSCLC, in the assay with HOP-92 NSCLC, in the assay with NCI-H23 lung, in the assay with OVCAR-8 ovarian, with SF-268 CNS and in the assay on TK-10 renal was more than 100 µM throughout.

Take `CCCCCCCCCCCc1c(O)c(=O)c2c(oc3c(=O)c(CCCCCCCCCCC)c(O)c(=O)c3n2-c2ccc(N(C)C)cc2)c1=O`: the TGI in the assay on A549 NSCLC was 52.4 µM; in the assay on NCI-H23 lung, 47.1 µM; with OVCAR-8 ovarian, 51.5 µM; in the assay with RPMI-8226 leukemia, more than 100 µM; with SF-268 CNS it was 58.1 µM; in the assay on SNB-75 CNS it was 62.4 µM. Besides, the TGI with TK-10 renal was 33 µM; in the assay on UACC-62 melanoma, 34.3 µM.

Turning to `C=C(C(=C)P(=S)(C(C)C)C(C)C)P(=S)(C(C)C)C(C)C`, the TGI with A549 NSCLC, in the assay on HOP-92 NSCLC, with NCI-H23 lung, with OVCAR-8 ovarian, with RPMI-8226 leukemia and in the assay with SF-268 CNS was more than 100 µM in each case. For the same molecule, the TGI with SNB-75 CNS, with TK-10 renal and with UACC-62 melanoma was more than 100 µM each time.

In the case of `CC(=O)NC(C=O)C(O[C@H](C)C(=O)NC(C)C(=O)NC(CCC(N)=O)C(=O)OCc1ccccc1)C(O)C(O)COC(=O)CCNc1c2ccccc2nc2cccc([N+](=O)[O-])c12` (stereo partly drawn), the TGI in the assay on A549 NSCLC stood at 5.13 µM; in the assay with HOP-92 NSCLC it was 5.41 µM; with NCI-H23 lung, 9.45 µM; with OVCAR-8 ovarian it was 18.7 µM; in the assay with RPMI-8226 leukemia, 4.39 µM; in the assay on SF-268 CNS, 5.11 µM. Further, the TGI was determined as 17.8 µM in the assay on SNB-75 CNS, 53.6 µM in the assay with TK-10 renal and 10.5 µM with UACC-62 melanoma.

On to `CC(=O)c1ccc(NC(=O)C(=O)C(C#N)CC(C)(C)C=O)cc1` (stereo not drawn), for which the TGI in the assay with A549 NSCLC, with HOP-92 NSCLC, in the assay with NCI-H23 lung, in the assay with OVCAR-8 ovarian, in the assay with RPMI-8226 leukemia and in the assay with SF-268 CNS was more than 100 µM each time. For the same molecule, the TGI in the assay with TK-10 renal and in the assay on UACC-62 melanoma was more than 100 µM in each case.

For the molecule `COc1ccc(NC(=O)CC(=O)n2nc(C)c(N=Nc3ccccc3C(=O)O)c2C)cc1`, the TGI with A549 NSCLC was more than 100 µM; in the assay on NCI-H23 lung it was more than 100 µM; with OVCAR-8 ovarian, more than 100 µM; with RPMI-8226 leukemia, more than 100 µM; in the assay with SF-268 CNS, more than 100 µM; in the assay with SNB-75 CNS, 78.8 µM. Besides, the TGI in the assay on TK-10 renal and in the assay with UACC-62 melanoma was more than 100 µM throughout.
